Results published in patent US20250270227A1, “CAMPTOTHECIN DERIVATIVE, AND PHARMACEUTICAL COMPOSITION AND USE THEREOF” (SIMCERE ZAIMING PHARMACEUTICAL CO., LTD., priority 2021, published 2025).
Like-named read-outs stand apart in the source and are kept apart here.

Columns and labels:
CYP3A4 = CYP3A4 (Homo sapiens (Human), UniProt P08684); assay: Inhibitory effect on CYP enzymatic activity in human liver microsomes; format: in vitro ADME
Protocol: The inhibition of CYP2C9, CYP2D6 and CYP3A4 enzymatic activities by the compounds of the present disclosure was determined by the following experimental method.
• 1. Human liver microsomes (Corning 452117) • 2. NADPH (Solarbio 705Y021) • 3. Positive substrates diclofenac (Sigma SLBV3438), dextromethorphan (TRC 3-EDO-175-1) and midazolam (Cerilliant FE01161704) • 4. Positive inhibitors sulfaphenazole (D. Ehrenstorfer GmbH 109012), quinidine (TCI WEODL-RE) and ketoconazole (Sigma 100M1091V) • 5. AB Sciex Triple Quad 5500 liquid chromatography-mass spectrometry
• 1. Preparation of 100 mM phosphate buffered saline (PBS): 7.098 g of Na2HPO4 was weighed, 500 mL of pure water was added and subjected to ultrasonic dissolution to obtain solution A. 3.400 g of KH2PO4 was weighed, 250 mL of pure water was added and subjected to ultrasonic dissolution to obtain solution B. Solution A was placed on a stirrer and solution B was slowly added until the pH value reached 7.4 to prepare 100 mM PBS buffer. • 2. Preparation of 10 mM NADPH solution with 100 mM PBS buffer. The 10 mM stock solution of the compound of the present disclosure was diluted with DMSO to obtain a 200× concentration of compound working solution (6000, 2000, 600, 200, 60, 20, 0 μM). The stock solution of positive inhibitors was diluted with DMSO to obtain a 200× concentration of positive inhibitor working solution (sulfaphenazole, 1000, 300, 100, 30, 10, 3, 0 μM; quinidine/ketoconazole, 100, 30, 10, 3, 1, 0.3, 0 μM). A 200× concentration of substrate working solution (120 μM diclofenac, 400 μM dextromethorphan, and 200 μM midazolam) was prepared with water, acetonitrile, or acetonitrile/methanol. • 3. 2 μL of 20 mg/ml liver microsome solution, 1 μL of substrate working solution, 1 μL of compound working solution and 176 μL of PBS buffer were taken, mixed uniformly, and pre-incubated in a 37° C. water bath for 15 min. To the positive control group was added 1 μL of sulfaphenazole, quinidine or ketoconazole working solution instead of compound working solution. A 10 mM NADPH solution was also pre-incubated in the 37° C. water bath for 15 min. After 15 min, 20 μL of NADPH was taken and added to each well to initiate the reaction, and the reaction was incubated at 37° C. for 5 min (CYP2C9), 20 min (CYP2D6) or 5 min (CYP3A4). Double samples were set for all incubation samples. After the corresponding time of incubation, 400 μL of glacial methanol containing internal standard was added to all samples to stop the reaction. The mixture was mixed uniformly by vortex and centrifuged at 3220 g for 40 min at 4° C. After the completion of the centrifugation, 100 μL of the supernatant was transferred to a loading plate, and 100 μL of ultrapure water was added and mixed uniformly for LC-MS/MS analysis.
The reduction in metabolite production in the administration group compared to the control group was compared by the ratio of sample peak area to internal standard peak area, and IC50 value was calculated by Excel XLfit 5.3.1.3.
The percent remaining activity was calculated by the following equation: […]

[1] = target: hERG potassium ion channel (Homo sapiens (Human), UniProt Q12809); assay: hERG inhibitory activity (automated patch clamp, CHO cell line stably expressing hERG); format: cell-based
Protocol: The inhibition of hERG activity by the compounds of the present disclosure was determined by the following experimental method.
A CHO cell line stably expressing hERG ion channel was purchased from B′SYS GmbH (Switzerland). The cells were cultured in F-12 (HAM) medium containing 10% FBS buffer, 100 U/mL penicillin-streptomycin, 100 μg/mL hygromycin and 100 μg/mL G418. Trypsin substitute TrypLE™ Express was used for digestion and passage, passaging three times per week and maintaining about 80% confluence.
Iii. Preparation of Intracellular/Extracellular Fluid and Preparation of Solution of Compound to be Tested
• 1) NMDG 60 standard extracellular fluid: 80 mM sodium chloride, 60 mM NMDG, 4 mM potassium chloride, 2 mM calcium chloride, 1 mM magnesium chloride, 5 mM polyglucose, 10 mM HEPES, pH adjusted to 7.4 with HCl, osmotic pressure 289 mOsm/kg; • 2) NMDG 60 cell sealing solution: 80 mM sodium chloride, 60 mM NMDG, 4 mM potassium chloride, 10 mM calcium chloride, 1 mM magnesium chloride, 5 mM polyglucose, 10 mM HEPES, pH adjusted to 7.4 with HCl, osmotic pressure 313 mOsm/kg; • 3) Chip filling solution: 140 mM sodium chloride, 4 mM potassium chloride, 5 mM polyglucose, 10 mM HEPES, pH adjusted to 7.4 with NaOH, osmotic pressure 289 mOsm/kg; • 4) Standard extracellular fluid: 140 mM sodium chloride, 4 mM potassium chloride, 2 mM calcium chloride, 1 mM magnesium chloride, 5 mM polyglucose, 10 mM HEPES, pH adjusted to 7.4 with NaOH, osmotic pressure 298 mOsm/kg.
KF110 intracellular fluid: 10 mM EGTA, 10 mM HEPES, 10 mM potassium chloride, 10 mM sodium chloride, 110 mM potassium fluoride, pH adjusted to 7.2 with KOH, osmotic pressure greater than 280 mOsm/kg.
• 1) The compound to be tested was dissolved in DMSO and prepared into a stock solution with a final concentration of 10 mM. • 2) The stock solution was subjected to gradient dilution with DMSO as a solvent at a ratio of 1:3 into solutions with other three intermediate concentrations (mM): 3.33, 1.11 and 0.37, respectively. • 3) Before the start of the experiment, the gradient solution of the compound to be tested was diluted again with the extracellular fluid according to a ratio of 1:500 into a series of working solutions with final concentrations of: 20, 6.66, 2.22 and 0.74 (μM), respectively, while the 60 μM working solution was diluted from 10 mM stock solution according to a ratio of 3:500. […]

hERG potassium ion channel, sequence (Q12809 whole entry): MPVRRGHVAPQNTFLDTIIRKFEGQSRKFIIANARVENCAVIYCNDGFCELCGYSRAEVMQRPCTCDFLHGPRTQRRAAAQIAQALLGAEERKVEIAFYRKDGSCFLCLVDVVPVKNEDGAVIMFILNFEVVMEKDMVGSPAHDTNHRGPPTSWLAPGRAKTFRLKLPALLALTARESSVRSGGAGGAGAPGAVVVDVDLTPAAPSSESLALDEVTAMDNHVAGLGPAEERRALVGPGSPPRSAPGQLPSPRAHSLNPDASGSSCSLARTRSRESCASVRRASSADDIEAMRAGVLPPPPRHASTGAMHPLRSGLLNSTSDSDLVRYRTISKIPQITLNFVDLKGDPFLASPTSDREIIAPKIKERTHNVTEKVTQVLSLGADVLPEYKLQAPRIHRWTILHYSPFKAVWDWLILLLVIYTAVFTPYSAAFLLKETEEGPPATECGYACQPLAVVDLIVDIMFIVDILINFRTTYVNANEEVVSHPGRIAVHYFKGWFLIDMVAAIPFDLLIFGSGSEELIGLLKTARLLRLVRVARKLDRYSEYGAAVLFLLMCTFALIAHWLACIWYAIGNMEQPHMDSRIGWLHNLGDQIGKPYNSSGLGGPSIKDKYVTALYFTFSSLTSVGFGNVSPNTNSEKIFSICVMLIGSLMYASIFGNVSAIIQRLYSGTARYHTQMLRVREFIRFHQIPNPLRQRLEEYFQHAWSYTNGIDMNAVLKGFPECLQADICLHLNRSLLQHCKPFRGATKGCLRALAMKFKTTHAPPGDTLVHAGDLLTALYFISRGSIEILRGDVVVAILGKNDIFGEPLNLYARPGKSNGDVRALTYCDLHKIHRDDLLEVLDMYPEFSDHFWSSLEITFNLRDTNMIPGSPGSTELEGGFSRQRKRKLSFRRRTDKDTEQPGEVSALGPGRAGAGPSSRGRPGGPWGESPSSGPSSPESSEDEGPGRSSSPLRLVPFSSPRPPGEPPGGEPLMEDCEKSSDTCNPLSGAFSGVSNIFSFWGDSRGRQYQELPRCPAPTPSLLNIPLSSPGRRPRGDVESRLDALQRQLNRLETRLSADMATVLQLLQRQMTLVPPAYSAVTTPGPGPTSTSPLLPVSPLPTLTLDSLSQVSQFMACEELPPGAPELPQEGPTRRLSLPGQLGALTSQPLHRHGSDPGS
CYP3A4, sequence (P08684 whole entry): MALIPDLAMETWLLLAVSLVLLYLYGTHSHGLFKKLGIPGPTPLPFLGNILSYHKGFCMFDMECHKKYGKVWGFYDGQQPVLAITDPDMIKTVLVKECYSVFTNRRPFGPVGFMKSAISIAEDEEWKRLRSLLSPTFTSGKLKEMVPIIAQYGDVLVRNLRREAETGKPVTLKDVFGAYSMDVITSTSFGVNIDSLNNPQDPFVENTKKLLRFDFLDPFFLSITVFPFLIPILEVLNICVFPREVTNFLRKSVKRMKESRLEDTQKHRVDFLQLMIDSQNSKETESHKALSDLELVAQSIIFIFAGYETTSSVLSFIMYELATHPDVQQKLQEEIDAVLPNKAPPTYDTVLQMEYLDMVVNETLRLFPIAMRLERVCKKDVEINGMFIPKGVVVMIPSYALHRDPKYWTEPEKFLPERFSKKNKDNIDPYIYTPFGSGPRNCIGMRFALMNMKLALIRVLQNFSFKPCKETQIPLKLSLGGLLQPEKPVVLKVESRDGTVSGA

Compound	IC50 (CYP3A4) [µM]	IC50 [1] [µM]	IC50 (CYP3A4; read-out: Inhibition on CYP3A4 IC50, human liver microsomes, substrate midazolam) [µM]	IC50 ([1]; read-out: hERG potassium ion channel inhibitory activity IC50, CHO-hERG, SyncroPatch 384i, 0.37-30 μM) [µM]
[2H]C1([2H])Oc2cc3nc4c(c(CNC(=O)C(O)C5CC5)c3cc2O1)Cn1c-4cc2c(c1=O)COC(=O)[C@]2(O)CC (stereo partly drawn) [Compound 39, 2-cyclopropyl-N-(((S)-7-ethyl-7-hydroxy-8,11-dioxo-7,8,11,13-tetrahydro-10H-[1,3]dioxolo[4,5-g]pyrano[3′,4′:6,7]indolizino[1,2-b]quinolin-14-yl-2,2-d2)methyl)-2-hydroxyacetamide]	> 50	> 30	–	–
CC[C@@]1(O)C(=O)OCc2c1cc1n(c2=O)Cc2c-1nc1cc3c(cc1c2CNC(=O)C(O)C1CC1)OCO3 (single isomer, unassigned) [Compound 14-P2]	–	–	> 50	> 30
CC[C@@]1(O)C(=O)OCc2c1cc1n(c2=O)Cc2c-1nc1cc3c(c(F)c1c2CNC(=O)[C@@H](O)C1CC1)OCO3 (single isomer, unassigned) [Compound 37-P1]	> 50	> 30	–	–
CC[C@@]1(O)C(=O)OCc2c1cc1n(c2=O)Cc2c-1nc1cc3c(cc1c2CNC(=O)C(O)C1CC1)OCO3 (single isomer, unassigned) [Compound 14-P1]	> 50	> 30	–	–
